Test results as given in paper PMC4356375, “Snapshots of ligand entry, malleable binding and induced helical movement in P-glycoprotein” (Acta Crystallographica Section D: Biological Crystallography, 2015).

What was measured:
P-gp [1] = molecular target: T1, P-gp (Mus musculus, UniProt P21447); test: Stimulation of basal ATPase activity of purified P-gp; assay type: biochemical; conditions: 310 K
T1 construct: inferred from the Ni-NTA purification; made in house; host or cells: Pichia pastoris
Procedure: The ATPase activity of P-gp was measured at 310 K using the ATP-regenerating system described by Vogel & Steinhart (1976[▶]) as modified by Urbatsch et al. (1995[▶]). Briefly, 1 µg P-gp was added to 100 µl 50 mM Tris–HCl pH 7.5 buffer containing 10 mM ATP, 12 mM MgCl2, 6 mM phosphoenolpyruvate, 1 mM NADH, 10 units of lactate dehydrogenase, 10 units of pyruvate kinase and test compounds over a range of concentrations. ATP hydrolysis was determined by the decrease in NADH absorbance at OD340 using a Filtermax F5 Multiplate Spectrophotometer. The ATPase activity was calculated using the equation ΔOD/(∊ × [protein] × time), where ΔOD is the change in absorbance and ∊ is the extinction coefficient of NADH. The concentration of purified P-gp was estimated by comparing the SDS–PAGE intensity of Coomassie-stained protein bands with known amounts of BSA. EC50 values were calculated using GraphPad Prism (GraphPad Software, San Diego, California, USA) using nonlinear regression (curve fit) from the entire concentration range.
Gene-optimized mouse P-gp (ABCB1a; GenBank JF834158) was expressed in Pichia pastoris in 10 l cultures in a BioFlo 415 bioreactor (New Brunswick Scientific) and was induced by the slow addition of methanol (3.6 ml per hour per litre of culture volume) overnight as described previously (Aller et al., 2009[▶]; Bai et al., 2011[▶]). […]

P-gp [2] = molecular target: T2, P-gp (Cricetulus griseus, UniProt P21448); test: Calcein-AM transport assay in P-gp-overexpressing CR1R12 cells; assay type: cell-based, Chinese hamster; conditions: calcein-AM 0.25 µM, room temperature, read-out: IC50 inhibition of calcein-AM export
T2 construct: endogenous in cells; host or cells: Chinese hamster ovary CR1R12 cells (colchicine-selected; parental AUXB1)
T2 sequence (P21448 whole entry): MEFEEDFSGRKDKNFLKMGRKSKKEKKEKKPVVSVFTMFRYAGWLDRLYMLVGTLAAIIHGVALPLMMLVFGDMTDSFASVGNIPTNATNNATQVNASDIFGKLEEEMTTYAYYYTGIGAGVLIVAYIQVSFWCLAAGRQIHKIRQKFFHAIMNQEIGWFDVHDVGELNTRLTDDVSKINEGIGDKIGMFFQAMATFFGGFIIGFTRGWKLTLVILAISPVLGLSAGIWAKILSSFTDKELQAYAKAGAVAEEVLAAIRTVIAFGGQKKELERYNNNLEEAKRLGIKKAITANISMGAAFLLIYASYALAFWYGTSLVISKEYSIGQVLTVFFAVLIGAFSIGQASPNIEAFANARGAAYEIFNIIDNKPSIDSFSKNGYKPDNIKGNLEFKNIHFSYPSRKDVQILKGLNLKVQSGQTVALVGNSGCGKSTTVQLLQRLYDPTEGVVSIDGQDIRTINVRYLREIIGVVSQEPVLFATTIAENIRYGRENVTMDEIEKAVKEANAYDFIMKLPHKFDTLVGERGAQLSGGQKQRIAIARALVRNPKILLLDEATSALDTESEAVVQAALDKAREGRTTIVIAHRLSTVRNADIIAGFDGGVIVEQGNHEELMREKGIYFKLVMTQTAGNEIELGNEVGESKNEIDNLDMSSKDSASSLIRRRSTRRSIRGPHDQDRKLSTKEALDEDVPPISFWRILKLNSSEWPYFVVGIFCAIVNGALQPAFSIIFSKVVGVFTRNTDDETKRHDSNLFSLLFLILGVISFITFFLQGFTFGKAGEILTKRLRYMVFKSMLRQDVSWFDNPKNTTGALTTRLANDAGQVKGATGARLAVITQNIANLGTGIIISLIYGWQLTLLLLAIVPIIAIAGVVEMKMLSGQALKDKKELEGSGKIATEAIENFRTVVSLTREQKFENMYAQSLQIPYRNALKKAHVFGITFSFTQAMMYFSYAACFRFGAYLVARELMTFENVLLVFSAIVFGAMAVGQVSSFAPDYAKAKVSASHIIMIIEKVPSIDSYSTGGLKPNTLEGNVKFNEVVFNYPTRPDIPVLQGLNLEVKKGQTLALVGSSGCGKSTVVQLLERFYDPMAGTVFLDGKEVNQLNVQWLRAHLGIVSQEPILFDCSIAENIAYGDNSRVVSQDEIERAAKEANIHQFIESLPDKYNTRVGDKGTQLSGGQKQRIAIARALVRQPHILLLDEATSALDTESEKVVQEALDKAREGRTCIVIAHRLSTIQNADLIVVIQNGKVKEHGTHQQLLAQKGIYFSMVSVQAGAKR
Procedure: It has commonly been used in fluorescence-based transport assays for P-gp in whole-cell systems (Al-Shawi & Senior, 1993[▶]). Chinese hamster ovary CR1R12 cells were cultured in the presence of 5 µg ml^−1 colchicine to maintain P-gp overexpression. In general, ∼5 × 10^5 CR1R12 cells per well were pretreated with test compounds in serially increasing concentrations at room temperature for 15 min; calcein-AM (0.25 µM) was then added and incubated for an additional 15 min at room temperature while monitoring the fluorescence intensity (excitation at 485 nm, emission at 535 nm). 100% was the maximum fluorescence achieved by full inhibition of P-gp in CR1R12 cells. The means and standard deviations were obtained from quadruplet experiments.

CR1R12 cells = test: Sensitization assay: growth of CR1R12 cells with colchicine (sulforhodamine B); assay type: cell-based, Chinese hamster
Procedure: (§1) CR1R12 cells were grown in the presence of increasing concentrations of colchicine for 3 d at given concentrations of test compounds. Cell densities were determined using the sulforhodamine B colorimetric assay (Vichai & Kirtikara, 2006[▶]). 100% is defined as the growth in the absence of colchicine. Parental AUXB1 cells were included as controls. […]
(§2) Figure S4 Sensitization of CR1R12 cells to the anti-cancer drug colchicine by homotrimeric cyclopeptides. Relative to parental control AUXB1 cells, P-gp-overexpressing CR1R12 cells are ~200 times more resistant to the anticancer drug colchicine (gray lines in all panes). Their 50% growth […]
(§3) Presence of (a) QZ-Ala, green, (b)
(§4) QZ-Val, blue, and (d) QZ-Phe, red, in the growth media sensitized the CR1R12 cells to colchicine in a concentration-dependent manner with full reversal of P-gp mediated multidrug resistance seen at 2 […]
(§5) increasing concentrations of (c) QZ-Leu, yellow, also sensitized CR1R12 cells to colchicine, where […]
(§6) higher concentrations. Shown are representative data from three independent experiments. The concentrations are plotted in log scale.

AUXB1 cells = test: Growth inhibition of parental control AUXB1 cells by colchicine; assay type: cell-based, Chinese hamster; conditions: Cricetulus griseus, read-out: 50% growth inhibition (GI50)
Procedure: as §1, §2, §3, §4, §5, §6

[3] = test system: P-gp-over-expressing CR1R12, and parental control AuxB1, cells; test: Cytotoxicity of the cyclopeptides to CR1R12 and parental AuxB1 cells (Fig. S3); assay type: cell-based, Chinese hamster
Procedure: Figure S1 NMR spectra of QZ-Ala, QZ-Leu and QZ-Phe. 13C (top) and 1H (bottom) spectra are […]
Figure S2 Structure based alignment. Two views of P-gp depicting Cα position shifts between the new (P-gp native at 3.4 Å, reported here) and previously published model (pdb code: 4KSB). Changes are depicted by color with red indicating the largest shift in Cα position (8.35 Å). Alignments and pairwise Cα RMSD calculations were calculated using the python module ‘ColorByRMSD’ within the PyMOL Molecular Graphics System (Schrödinger, LLC)
Figure S3 Cytotoxicity of the homotrimeric cyclopeptide compounds to P -gp-over-expressing CR1R12, and parental control AuxB1, cells using Calcein-AM transport assay. P-gp mediates mild […]
of this compound at high concentrations. The mean and SD of quadruplet experiments are shown; data were fit using the Hill equation. QZ-Ala, QZ-Val, QZ-Leu and QZ-Phe are drawn in green, blue, yellow and red curves, respectively. The concentrations are plotted in log scale.
as §2
Presence of (a) QZ-Ala, green, (b) […]

[4] = Solubility remark (Fig. S3 legend); assay type: physicochemical; conditions: at high concentrations

T1 sequence (P21447 whole entry): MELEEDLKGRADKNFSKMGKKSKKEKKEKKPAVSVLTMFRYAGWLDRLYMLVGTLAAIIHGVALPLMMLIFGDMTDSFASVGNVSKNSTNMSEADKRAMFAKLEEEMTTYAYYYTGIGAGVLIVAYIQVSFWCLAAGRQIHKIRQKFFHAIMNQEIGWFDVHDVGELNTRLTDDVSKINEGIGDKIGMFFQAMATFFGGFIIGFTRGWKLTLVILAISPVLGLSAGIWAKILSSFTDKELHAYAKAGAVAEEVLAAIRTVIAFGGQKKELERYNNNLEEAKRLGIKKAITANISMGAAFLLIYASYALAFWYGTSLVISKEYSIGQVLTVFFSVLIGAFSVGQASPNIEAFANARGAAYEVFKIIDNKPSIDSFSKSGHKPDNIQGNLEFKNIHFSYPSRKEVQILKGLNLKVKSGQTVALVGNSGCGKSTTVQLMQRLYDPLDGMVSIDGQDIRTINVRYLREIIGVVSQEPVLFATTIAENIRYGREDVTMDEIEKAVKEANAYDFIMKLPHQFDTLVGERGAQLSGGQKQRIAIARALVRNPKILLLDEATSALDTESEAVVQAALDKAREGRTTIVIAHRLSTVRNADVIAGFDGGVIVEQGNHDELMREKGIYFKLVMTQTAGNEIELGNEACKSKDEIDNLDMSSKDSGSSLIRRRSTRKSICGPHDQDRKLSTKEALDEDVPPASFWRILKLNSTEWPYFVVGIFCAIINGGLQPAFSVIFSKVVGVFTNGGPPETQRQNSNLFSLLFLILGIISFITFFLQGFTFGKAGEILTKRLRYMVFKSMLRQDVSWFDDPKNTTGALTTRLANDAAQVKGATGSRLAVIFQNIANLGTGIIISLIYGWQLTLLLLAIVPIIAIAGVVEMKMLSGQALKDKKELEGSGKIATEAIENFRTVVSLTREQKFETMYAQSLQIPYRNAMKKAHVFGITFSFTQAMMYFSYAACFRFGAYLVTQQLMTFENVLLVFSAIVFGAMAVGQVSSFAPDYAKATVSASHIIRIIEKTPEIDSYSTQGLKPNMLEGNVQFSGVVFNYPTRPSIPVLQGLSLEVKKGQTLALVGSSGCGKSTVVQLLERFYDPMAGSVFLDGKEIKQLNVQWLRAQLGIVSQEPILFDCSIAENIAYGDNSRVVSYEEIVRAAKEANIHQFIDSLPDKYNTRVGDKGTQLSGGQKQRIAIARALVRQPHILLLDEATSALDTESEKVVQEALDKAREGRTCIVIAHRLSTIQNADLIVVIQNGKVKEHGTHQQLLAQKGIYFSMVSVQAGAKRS

With `C[C@@H]1NC(=O)c2c[se]c(n2)[C@H](C)NC(=O)c2c[se]c(n2)[C@H](C)NC(=O)c2c[se]c1n2` [QZ-Ala] the EC50 (P-gp [1]) was 0.92 µM and the IC50 (P-gp [2]) was 0.14 µM.

In the case of `CC(C)C[C@@H]1NC(=O)c2c[se]c(n2)[C@H](CC(C)C)NC(=O)c2c[se]c(n2)[C@H](CC(C)C)NC(=O)c2c[se]c1n2` [QZ-Leu], the IC50 (P-gp [2]) is reported as 5.4 µM and the “Cytotoxicity (in words)” value (CR1R12 cells; CR1R12 cells, higher concentrations) is reported as “became cytotoxic”.

In the case of `CC(C)[C@@H]1NC(=O)c2c[se]c(n2)[C@H](C(C)C)NC(=O)c2c[se]c(n2)[C@H](C(C)C)NC(=O)c2c[se]c1n2` [QZ-Val], the IC50 (P-gp [2]) is reported as 1.7 µM.

In the case of `COc1cc2c(c(OC)c1OC)-c1ccc(OC)c(=O)cc1[C@@H](NC(C)=O)CC2` [colchicine], the “Resistance of CR1R12 cells relative to AUXB1 cells” value (CR1R12 cells; CR1R12 vs parental AUXB1) is reported as ~ 200 times, the GI50 (CR1R12 cells; Cricetulus griseus, CR1R12 cells, no cyclopeptide, read-out: 50% growth inhibition (GI50)) is reported as 27 µM and the GI50 (AUXB1 cells) is reported as 0.14 µM.

In the case of `O=C1N[C@@H](Cc2ccccc2)c2nc(c[se]2)C(=O)N[C@@H](Cc2ccccc2)c2nc(c[se]2)C(=O)N[C@@H](Cc2ccccc2)c2nc1c[se]2` [QZ-Phe], the IC50 (P-gp [2]) is reported as 24 µM, the “Full growth inhibition (in words)” value [3] is reported as “not observed” and the “Solubility (in words)” value [4] is reported as “limited solubility”.
